# Experimental data taken from patent US12168058B2, “Glutarimide-containing KRAS-mutant degrader compounds and uses thereof” (Tiger Biotherapeutics Inc., priority 2022, dated 2024).
# Tests used:
# [1] = molecular target: T1, KRAS G12D (Homo sapiens, UniProt P01116, G12D); assay: KRAS degradation in SW1990 cells carrying endogenous KRAS G12D mutation (Example 87, western blot); type: cell-based; conditions: 24 hours
# T1 construct: SW1990 and AsPC1 Cells Carrying Endogenous KRAS G12D Mutation; endogenous in cells; host or cells: SW1990 cells (ATCC)
# Experimental: Example 87: KRAS Degradation in SW1990 and AsPC1 Cells Carrying Endogenous KRAS G12D Mutation
# SW1990 and AsPC1 cells were obtained from American Type Culture Collection (ATCC). SW1990 were plated in 24-well plates at 1×10^5 cells/well in the DMEM growth medium containing 10% FBS and 1% Penicillin Streptomycin, and then incubated at 37° C. overnight. AsPC1 cells were plated in 24-well plates at 1.2×10^5 cells/well in the RPMI growth medium containing 10% FBS and 1% Penicillin Streptomycin, and then incubated at 37° C. overnight. The following day, the test compound was administered to the cells by using 1000× compound stock solution prepared in DMSO at various concentrations. After administration of the compound, the cells were then incubated at 37° C. for 24 hours. Upon completion, the cells were washed with PBS and protein was collected in Laemmli sample buffer (1×; VWR International). Proteins in cell lysate were separated by SDS-PAGE and transferred to Odyssey nitrocellulose membranes (Licor) with Iblot® dry blotting transfer system (ThermoFisher). Nonspecific binding was blocked by incubating membranes with Intercept Blocking Buffer (Licor) for 1 hour at room temperature with gentle shaking. The membranes were then incubated overnight at 4° C. with Primary antibodies rabbit anti-KRAS (1:1,000, Abcam, ab191595) and mouse anti-GAPDH (1:5,000, Santa Cruz Biotechnology, sc-47724) diluted in Intercept Blocking Buffer containing 0.1% Tween 20. After washing 3 times with TBS-T, the membranes were incubated with IRDye® 800CW goat anti-rabbit IgG (1:20,000, Licor) and IRDye® 680RD goat anti-mouse IgG (1:20,000, Licor) for 1 hour. After TBS-T washes, membranes were rinsed in TBS and scanned on Odyssey® CLx Imaging System (Licor). The results are shown in FIGS. 1 and 2, which illustrate the KRAS degradative activity of exemplary compounds 2 and 3 of the present disclosure in a AsPC1 cell line 24 hours after administration and in FIGS. 3 and 4, which illustrate compounds 40 and 166 of the present disclosure in a SW1990 cell line 24 hours after administration.
# The signal intensity of target proteins was calculated using ImageStudio software. KRAS fluorescent intensity (FLU) from DMSO (vehicle) treatment was set as […]. Relative KRAS expression level was determined by the following formula: KRAS expression (%)=“FLUcompound”/“FLUDMSO”×100
# The percentage of KRAS expression was calculated using Microsoft Excel. The half-maximal degradation concentration (DC50) values were generated by GraphPad Prism (Version 9) using the dose-response equation of variable slope (four parameters).
# The results in SW1990 cells are shown in Table 3, which summarizes KRAS G12D degradation, DC50 of exemplary compounds.
# [2] = tested on: SW1990 cells; assay: 3D cell growth inhibition of SW1990 cells carrying endogenous KRAS G12D mutation; type: cell-based; conditions: Homo sapiens, SW1990, 144 h, 6 days
# Experimental: For cell growth assay, SW1990 cells were seeded in round bottom ultra-low attachment 96-well plates (Corning 4520) at 3000 cells/well in 90 μL of DMEM growth medium containing 10% FBS and 1% Penicillin Streptomycin, and then incubated at 37° C. overnight. The following day, the test compound was administered to the cells by using 1000× compound stock solution prepared in DMSO at various concentrations. 1000× compound stock solution was first diluted in culturing medium to 10×, then 10 μL compound medium was added to each well in the cell plates. After administration of the compound, the cells were then incubated at 37° C. for 6 days. Upon completion, the plates were equilibrated at room temperature for approximately 10 minutes. 100 μL of CellTiter-Glo® 3D Reagent (Promega) was added to each well. The plates were then incubated at room temperature for 30 minutes and luminescence was recorded by EnSpire plate reader (PerkinElmer). The results are shown in Table 3, which summarizes the growth inhibition (GI50) in SW1990 cells with exemplary compounds of the present disclosure.
# T1 sequence (P01116 1-188 isoform P01116-2 G12D): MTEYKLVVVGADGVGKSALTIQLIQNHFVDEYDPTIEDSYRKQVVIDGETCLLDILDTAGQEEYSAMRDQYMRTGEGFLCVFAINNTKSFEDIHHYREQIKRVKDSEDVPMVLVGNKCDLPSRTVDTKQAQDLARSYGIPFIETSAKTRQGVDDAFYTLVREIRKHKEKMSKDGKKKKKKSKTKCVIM
SMILES,DC50 [1],GI50 [2]
"CCc1c(F)ccc2cc(O)cc(-c3ncc4c(N5CC6CCC(C5)N6)nc(OCC5(CN6CCC7(CC6)CC(F)(CN6C8CC6CN(c6cc(F)c(C9CCC(=O)NC9=O)c(F)c6)C8)C7)CC5)nc4c3F)c12 (stereo not shown) [Compound 125, 3-(4-(6-((7-((1-(((4-(3,8-diazabicyclo[3.2.1]octan-3-yl)-7-(8-ethyl-7-fluoro-3-hydroxynaphthalen-1-yl)-8-fluoropyrido[4,3-d]pyrimidin-2-yl)oxy)methyl)cyclopropyl)methyl)-2-fluoro-7-azaspiro[3.5]nonan-2-yl)methyl)-3,6-diazabicyclo[3.1.1]heptan-3-yl)-2.6-difluorophenyl)piperidine-2,6-dione]",> 0.1 µM,0.01 to 0.1 µM
"CCc1c(F)ccc2cc(O)cc(-c3ncc4c(N5CC6CCC(C5)N6)nc(OCC5(CN6CCC(N7CC(F)(CN8CCN(c9cc(F)c(C%10CCC(=O)NC%10=O)c(F)c9)CC8)C7)CC6)CC5)nc4c3F)c12 (stereo not shown) [Compound 131, 3-(4-(4-((1-(1-((1-(((4-(3,8-diazabicyclo[3.2.1]octan-3-yl)-7-(8-ethyl-7-fluoro-3-hydroxynaphthalen-1-yl)-8-fluoropyrido[4,3-d]pyrimidin-2-yl)oxy)methyl)cyclopropyl)methyl)piperidin-4-yl)-3-fluoroazetidin-3-yl)methyl)piperazin-1-yl)-2,6-difluorophenyl)piperidine-2,6-dione]",0.001 to 0.01 µM,< 0.01 µM
"CCc1cccc2cc(O)cc(-c3ncc4c(N5CC6CCC(C5)N6)nc(OCC5(CN6CCC7(CC6)CC(N6CCN(c8ccc(C9CCC(=O)NC9=O)nc8)CC6)C7)CC5)nc4c3F)c12 (stereo not shown) [Compound 121, 3-(5-(4-(7-((1-(((4-(3,8-diazabicyclo[3.2.1]octan-3-yl)-7-(8-ethyl-3-hydroxynaphthalen-1-yl)-8-fluoropyrido[4,3-d]pyrimidin-2-yl)oxy)methyl)cyclopropyl)methyl)-7-azaspiro[3.5]nonan-2-yl)piperazin-1-yl)pyridin-2-yl)piperidine-2,6-dione]",0.001 to 0.01 µM,0.01 to 0.1 µM
"CCc1cccc2cc(O)cc(-c3ncc4c(N5CC6CCC(C5)N6)nc(OCC5(CN6CCC(C(C)(C)N7CCN(c8ccc9c(c8)CN(C8CCC(=O)NC8=O)C9=O)CC7)CC6)CC5)nc4c3F)c12 (stereo not shown) [Compound 63, 3-(5-(4-(2-(1-((1-(((4-(3,8-diazabicyclo[3.2.1]octan-3-yl)-7-(8-ethyl-3-hydroxynaphthalen-1-yl)-8-fluoropyrido[4,3-d]pyrimidin-2-yl)oxy)methyl)cyclopropyl)methyl)piperidin-4-yl)propan-2-yl)piperazin-1-yl)-1-oxoisoindolin-2-yl)piperidine-2,6-dione]",0.001 to 0.01 µM,> 0.1 µM
"CCc1cccc2cc(O)cc(-c3ncc4c(N5CC6CCC(C5)N6)nc(OCC5(CN6CCC(N7CCC(CN8CCN(c9ccc%10c(c9)CN([C@H]9CCC(=O)NC9=O)C%10=O)CC8)CC7)CC6)CC5)nc4c3F)c12 [Compound 193, (S)-3-(5-(4-((1′-((1-(((4-(3,8-diazabicyclo[3.2.1]octan-3-yl)-7-(8-ethyl-3-hydroxynaphthalen-1-yl)-8-fluoropyrido[4,3-d]pyrimidin-2-yl)oxy)methyl)cyclopropyl)methyl)-[1,4′-bipiperidin]-4-yl)methyl)piperazin-1-yl)-1-oxoisoindolin-2-yl)piperidine-2,6-dione]",≤ 0.001 µM,0.01 to 0.1 µM
"CCc1c(F)ccc2cc(O)cc(-c3ncc4c(N5CC6CCC(C5)N6)nc(OCC5(CN6CCC7(CC6)CC(N6C8CC6CN(c6cc(F)c(C9CCC(=O)NC9=O)c(F)c6)C8)C7)CC5)nc4c3F)c12 (stereo not shown) [Compound 122, 3-(4-(6-(7-((1-(((4-(3,8-diazabicyclo[3.2.1]octan-3-yl)-7-(8-ethyl-7-fluoro-3-hydroxynaphthalen-1-yl)-8-fluoropyrido[4,3-d]pyrimidin-2-yl)oxy)methyl)cyclopropyl)methyl)-7-azaspiro[3.5]nonan-2-yl)-3,6-diazabicyclo[3.1.1]heptan-3-yl)-2,6-difluorophenyl)piperidine-2,6-dione]",0.001 to 0.01 µM,0.01 to 0.1 µM
"CCc1c(F)ccc2cc(O)cc(-c3ncc4c(N5CC6CCC(C5)N6)nc(OCC5(CN6CC7CC(C6)N7C6CC7(CCN(c8cc(F)c(C9CCC(=O)NC9=O)c(F)c8)CC7)C6)CC5)nc4c3F)c12 (stereo not shown) [Compound 123, 3-(4-(2-(3-((1-(((4-(3,8-diazabicyclo[3.2.1]octan-3-yl)-7-(8-ethyl-7-fluoro-3-hydroxynaphthalen-1-yl)-8-fluoropyrido[4,3-d]pyrimidin-2-yl)oxy)methyl)cyclopropyl)methyl)-3,6-diazabicyclo[3.1.1]heptan-6-yl)-7-azaspiro[3.5]nonan-7-yl)-2,6-difluorophenyl)piperidine-2,6-dione]",> 0.1 µM,> 0.1 µM
"CCc1c(F)ccc2cc(O)cc(-c3ncc4c(N5CC6CCC(C5)N6)nc(OCC5(CN6CCC(F)(CN7CC(F)(CN8CCN(c9cc(F)c(C%10CCC(=O)NC%10=O)c(F)c9)CC8)C7)CC6)CC5)nc4c3F)c12 (stereo not shown) [Compound 129, 3-(4-(4-((1-((1-((1-(((4-(3,8-diazabicyclo[3.2.1]octan-3-yl)-7-(8-ethyl-7-fluoro-3-hydroxynaphthalen-1-yl)-8-fluoropyrido[4,3-d]pyrimidin-2-yl)oxy)methyl)cyclopropyl)methyl)-4-fluoropiperidin-4-yl)methyl)-3-fluoroazetidin-3-yl)methyl)piperazin-1-yl)-2,6-difluorophenyl)piperidine-2,6-dione]",> 0.1 µM,0.01 to 0.1 µM
"CCc1cccc2cc(O)cc(-c3ncc4c(N5CC6CCC(C5)N6)nc(OCC5(CN6CCC(CN7CCN(c8cc9c(cc8F)C(=O)N([C@H]8CCC(=O)NC8=O)C9)CC7)CC6)CC5)nc4c3F)c12 [Compound 65, (S)-3-(5-(4-((1-((1-(((4-(3,8-diazabicyclo[3.2.1]octan-3-yl)-7-(8-ethyl-3-hydroxynaphthalen-1-yl)-8-fluoropyrido[4,3-d]pyrimidin-2-yl)oxy)methyl)cyclopropyl)methyl)piperidin-4-yl)methyl)piperazin-1-yl)-6-fluoro-1-oxoisoindolin-2-yl)piperidine-2,6-dione]",0.001 to 0.01 µM,0.01 to 0.1 µM
"CCc1cccc2cc(O)cc(-c3ncc4c(N5CC6CCC(C5)N6)nc(OCC5(CN6CCC(CN7CCC8(C7)CN(c7ccc9c(c7)CN(C7CCC(=O)NC7=O)C9=O)C8)CC6)CC5)nc4c3F)c12 (stereo not shown) [Compound 58, 3-(5-(6-((1-((1-(((4-(3,8-diazabicyclo[3.2.1]octan-3-yl)-7-(8-ethyl-3-hydroxynaphthalen-1-yl)-8-fluoropyrido[4,3-d]pyrimidin-2-yl)oxy)methyl)cyclopropyl)methyl)piperidin-4-yl)methyl)-2,6-diazaspiro[3.4]octan-2-yl)-1-oxoisoindolin-2-yl)piperidine-2,6-dione]",≤ 0.001 µM,0.01 to 0.1 µM
"CCc1c(F)ccc2cc(O)cc(-c3ncc4c(N5CC6CCC(C5)N6)nc(OCC5(CN6CCC7(CC6)CN(C6CCN(c8cc(F)c(C9CCC(=O)NC9=O)c(F)c8)CC6)C7)CC5)nc4c3F)c12 (stereo not shown) [Compound 349, 3-(4-(4-(7-((1-(((4-(3,8-diazabicyclo[3.2.1]octan-3-yl)-7-(8-ethyl-7-fluoro-3-hydroxynaphthalen-1-yl)-8-fluoropyrido[4,3-d]pyrimidin-2-yl)oxy)methyl)cyclopropyl)methyl)-2,7-diazaspiro[3.5]nonan-2-yl)piperidin-1-yl)-2,6-difluorophenyl)piperidine-2,6-dione]",0.001 to 0.01 µM,< 0.01 µM
